Bounds are passed on as bounds.

Results on 59 molecules are retold here after ChEMBL document CHEMBL2321784, “Discovery of 5-benzyl-3-phenyl-4,5-dihydroisoxazoles and 5-benzyl-3-phenyl-1,4,2-dioxazoles as potent firefly luciferase inhibitors” (J Med Chem, 2013).

The target in assay [1] is Luciferin 4-monooxygenase (Photinus pyralis) (UniProt P08659). As to the kind of experiment: Inhibition of recombinant firefly luciferase at 10 uM after 20 mins by luminescence assay.
Assay [2] shares this target. As to the kind of experiment: Inhibition of recombinant firefly luciferase at 1 nM after 20 mins by luminescence assay.
The target in assay [3] is Luciferin 4-monooxygenase (Photinus pyralis, UniProt P08659). As to the kind of experiment: Inhibition of recombinant firefly luciferase after 20 mins by luminescence assay.
Sequence of Luciferin 4-monooxygenase (P08659 whole entry): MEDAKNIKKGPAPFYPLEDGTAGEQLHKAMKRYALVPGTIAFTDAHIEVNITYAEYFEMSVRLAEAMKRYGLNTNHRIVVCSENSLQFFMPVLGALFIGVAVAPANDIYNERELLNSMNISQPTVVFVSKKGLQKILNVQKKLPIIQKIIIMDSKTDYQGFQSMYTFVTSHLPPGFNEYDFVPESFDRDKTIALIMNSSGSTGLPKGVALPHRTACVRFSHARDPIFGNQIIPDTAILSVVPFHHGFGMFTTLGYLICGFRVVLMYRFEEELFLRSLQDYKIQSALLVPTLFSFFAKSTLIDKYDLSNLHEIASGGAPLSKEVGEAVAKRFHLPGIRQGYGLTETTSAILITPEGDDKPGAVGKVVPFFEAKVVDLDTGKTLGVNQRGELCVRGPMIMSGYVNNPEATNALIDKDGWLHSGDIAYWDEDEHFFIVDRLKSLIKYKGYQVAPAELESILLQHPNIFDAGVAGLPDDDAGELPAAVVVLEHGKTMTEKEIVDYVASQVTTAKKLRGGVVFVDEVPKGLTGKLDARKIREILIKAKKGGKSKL

Sequence of Luciferin 4-monooxygenase (Photinus pyralis) (P08659 whole entry): as above

For the molecule `COc1ccccc1CC1CC(c2ccc(Cl)cc2)=NO1` (racemic), the inhibition (in general, the relative decrease from the control value, in per cent) in assay [1] stood at 91.8%; in assay [2] it was 29.8%. Besides, the IC50 (as a rule, the midpoint of a concentration-inhibition curve) in assay [3] is 16.2 nM.

For the molecule `COc1ccc(C2=NOC(C)(Cc3ccccc3)C2)cc1` (racemic), the inhibition in assay [1] came to 97.6%; in assay [2], 20.3%. In addition, the IC50 in assay [3] was 21.9 nM.

With `COc1ccc(C[C@H]2CC(c3ccc(Cl)cc3)=NO2)cc1`, the inhibition in assay [1] came out at 1.7%; in assay [2], 1%.

Take `Clc1ccccc1C1=NOC(Cc2ccccc2)O1` (racemic): the inhibition in assay [1] turned out to be 99.6%; in assay [2] it was 68.5%. In addition, in assay [3], the 50% inhibitory concentration (IC50) is 0.525 nM.

As for `COc1ccc(C2=NO[C@H](CCc3ccccc3)C2)cc1`, the inhibition in assay [1] worked out at 96%; in assay [2] it was 30.5%. Also, in assay [3], the 50% inhibitory concentration (IC50) was 13.8 nM.

With `Oc1ccc(C2=NO[C@H](Cc3ccccc3)C2)cc1`, the inhibition amounted to 93.3% in assay [1] and 13.1% in assay [2]. Further, the IC50 in assay [3] is 316 nM.

For the molecule `O=[N+]([O-])c1ccc(C2=NOC(Cc3ccccc3)C2)cc1` (racemic), the inhibition in assay [1] was determined as 96.4%; in assay [2], 63.9%. The IC50 in assay [3] is 0.741 nM.

Consider `Fc1ccccc1C1=NOC(Cc2ccccc2)O1` (racemic), for which the inhibition in assay [1] was 98%; in assay [2] it was 38.8%. For the same molecule, in assay [3], the IC50 was 2.82 nM.

As to `c1ccc(C[C@H]2CC(c3ccc4ccccc4c3)=NO2)cc1`, the inhibition in assay [1] came out at 31.5%; in assay [2] it was 4.9%. In assay [3], the pIC50 (usually the negative decadic logarithm of the IC50, by convention in mol/L) is greater than 5.

For `Clc1ccc(C2=NO[C@@H](Cc3ccccc3)C2)cc1`, the inhibition came out at 88.3% in assay [1] and 17.7% in assay [2]. Moreover, the IC50 in assay [3] is 417 nM.

Turning to `COc1ccc(C2=NO[C@H](Cc3ccc(F)cc3)C2)cc1`, the inhibition in assay [1] is 100%; in assay [2], 26.7%. The IC50 in assay [3] was 10.5 nM.

On to `COc1cccc(C2=NO[C@@H](Cc3ccccc3)C2)c1`, for which the values for the inhibition in assay [1] and in assay [2] were 75.3% and 9.6%, respectively. Also, the IC50 in assay [3] is 1950 nM.

In the case of `Oc1cccc(C2=NO[C@H](Cc3ccccc3)C2)c1`, the figures for the inhibition in assay [1] and in assay [2] were 99.7% and 47%, respectively. The IC50 in assay [3] is 0.832 nM.

On to `Fc1ccccc1C1=NO[C@@H](Cc2ccccc2)C1`, for which the inhibition in assay [1] was found to be 83%; in assay [2], 11.3%. For the same molecule, in assay [3], the IC50 is 1020 nM.

On to `CCc1ccc(C[C@H]2CC(c3ccc(Cl)cc3)=NO2)cc1`, for which the inhibition in assay [1] is 50.2%; in assay [2] it was 2.5%. Further, in assay [3], the IC50 was 8710 nM.

Take `CC(C)c1ccc(C[C@H]2CC(c3ccc(Cl)cc3)=NO2)cc1`: the inhibition was determined as 31.9% in assay [1] and 1.7% in assay [2]. The pIC50 in assay [3] is reported as greater than 5.

As for `Oc1ccccc1C1=NO[C@H](Cc2ccccc2)C1`, the figures for the inhibition in assay [1] and in assay [2] were 98.4% and 48.1%, respectively. The IC50 in assay [3] was 1.95 nM.

Take `Clc1ccccc1C1=NOC(Cc2ccccc2)C1` (racemic): the inhibition amounted to 99.8% in assay [1] and 50.7% in assay [2]. Further, in assay [3], the IC50 is 0.933 nM.

On to `CC1(Cc2ccccc2)CC(c2ccc(Cl)cc2)=NO1` (racemic), for which the inhibition in assay [1] came to 95.8%; in assay [2] it was 28.7%. For the same molecule, in assay [3], the IC50 was 32.4 nM.

In the case of `COc1ccc(C2=NO[C@H](Cc3ccccc3OC)C2)cc1`, the figures for the inhibition in assay [1] and in assay [2] were 98.8% and 46.5%, respectively. In addition, in assay [3], the IC50 is 1.82 nM.

For `c1ccc(C[C@@H]2CC(c3ccccc3)=NO2)cc1`, the inhibition is 99.5% in assay [1] and 47.1% in assay [2]. Further, in assay [3], the IC50 was 1.58 nM.

For the molecule `COc1cccc(C2=NO[C@H](Cc3ccccc3)C2)c1`, the inhibition in assay [1] worked out at 99.4%; in assay [2], 65.9%. Also, the IC50 in assay [3] is 0.398 nM.

In the case of `N#Cc1ccc(C2=NO[C@H](Cc3ccccc3)C2)cc1`, the inhibition in assay [1] stood at 99.2%; in assay [2], 53.6%. For the same molecule, the IC50 in assay [3] was 0.891 nM.

For `COc1ccc(C2=NO[C@@H](Cc3ccccc3)O2)cc1`, the inhibition came to 98.6% in assay [1] and 42% in assay [2]. Further, the IC50 in assay [3] is 5.25 nM.

In the case of `COc1ccc(C2=NO[C@@H](Cc3ccc(F)cc3)C2)cc1`, the inhibition in assay [1] is 41.3%; in assay [2], -1.9%. Besides, the pIC50 in assay [3] is greater than 5.

For `N#Cc1ccc(C2=NO[C@@H](Cc3ccccc3)C2)cc1`, the inhibition in assay [1] came to 88.3%; in assay [2] it was 14.7%. Besides, the IC50 in assay [3] was 331 nM.

As to `COc1ccccc1C1=NO[C@@H](Cc2ccccc2)O1`, the inhibition in assay [1] is 63.3%; in assay [2], 5%. The IC50 in assay [3] is 4270 nM.

With `Clc1ccc(C2=NO[C@H](Cc3cccc4ccccc34)C2)cc1`, the inhibition in assay [1] was determined as 40.9%; in assay [2], 2%. Moreover, in assay [3], the pIC50 is given as greater than 5.

Consider `COc1ccc(C[C@H]2CC(c3ccc(OC)cc3)=NO2)cc1`, for which the inhibition in assay [1] is 3.1%; in assay [2], 3.3%.

Regarding `COc1ccc(C[C@@H]2CC(c3ccc(OC)cc3)=NO2)cc1`, the inhibition in assay [1] worked out at 37.4%; in assay [2] it was 3.1%. The negative logarithm of the IC50 (pIC50) in assay [3] is listed as greater than 5.

On to `Clc1ccc(C2=NO[C@@H](Cc3cccc4ccccc34)C2)cc1`, for which the figures for the inhibition in assay [1] and in assay [2] were 36.6% and 1.9%, respectively. Moreover, the pIC50 in assay [3] is on record as greater than 5.

With `COc1ccc(C2=NO[C@@H](Cc3ccccc3)C2)cc1`, the inhibition in assay [1] came to 68%; in assay [2], 6.4%. Further, the concentration for half-maximal inhibition (IC50) in assay [3] was 2450 nM.

`Clc1cccc(C2=NOC(Cc3ccccc3)C2)c1` (racemic): the inhibition in assay [1] was 94.8%; in assay [2] it was 26.1%. The IC50 in assay [3] is 15.1 nM.

As for `Clc1ccc(C2=NOC(CCc3ccccc3)C2)cc1` (racemic), the inhibition in assay [1] was 64.2%; in assay [2], 1.5%. Moreover, the IC50 in assay [3] is 3240 nM.

As to `COc1ccc(C2=NO[C@H](Cc3cccc(OC)c3)C2)cc1`, the inhibition in assay [1] was found to be 98.7%; in assay [2], 43.8%. In addition, the IC50 in assay [3] was 1.17 nM.

On to `Oc1ccccc1C1=NO[C@@H](Cc2ccccc2)C1`, for which the results for the inhibition in assay [1] and in assay [2] were 79.7% and 8.9%, respectively. Moreover, the IC50 in assay [3] was 1120 nM.

Take `Fc1ccc(C[C@@H]2CC(c3ccc(Cl)cc3)=NO2)cc1`: the inhibition in assay [1] amounted to 99.2%; in assay [2] it was 53%. In addition, the IC50 in assay [3] is 0.871 nM.

For `COc1ccccc1C1=NO[C@H](Cc2ccccc2)O1`, the results for the inhibition in assay [1] and in assay [2] were 98.2% and 48.3%, respectively. For the same molecule, the half-maximal inhibitory concentration (IC50) in assay [3] was 2.14 nM.

In the case of `c1ccc(C[C@@H]2CC(c3ccc4ccccc4c3)=NO2)cc1`, the inhibition was 97% in assay [1] and 13.4% in assay [2]. The IC50 in assay [3] was 87.1 nM.

Regarding `c1ccc(C[C@@H]2CC(c3cccc4ccccc34)=NO2)cc1`, the inhibition in assay [1] was found to be 62.2%; in assay [2] it was 3%. The IC50 in assay [3] was 2510 nM.

As for `COc1ccc(C2=NO[C@@H](Cc3cccc(OC)c3)C2)cc1`, the inhibition in assay [1] was determined as 25.5%; in assay [2], 4%. Further, the pIC50 in assay [3] is greater than 5.

As to `Oc1cccc(C2=NO[C@@H](Cc3ccccc3)C2)c1`, the figures for the inhibition in assay [1] and in assay [2] were 71.5% and 6.7%, respectively. In assay [3], the IC50 is 2190 nM.

As for `COc1ccccc1C1=NO[C@H](Cc2ccccc2)C1`, the inhibition was 99.4% in assay [1] and 51.7% in assay [2]. Also, in assay [3], the IC50 is 0.912 nM.

In the case of `COc1ccc(CC2CC(c3ccc(Cl)cc3)=NO2)cc1OC` (racemic), the inhibition in assay [1] is 2.2%; in assay [2], 0.9%.

Turning to `Fc1ccc(C2=NO[C@@H](Cc3ccccc3)C2)cc1`, the values for the inhibition in assay [1] and in assay [2] were 85.6% and 7.7%, respectively. For the same molecule, in assay [3], the IC50 is 741 nM.

Regarding `Fc1ccc(C2=NO[C@H](Cc3ccccc3)C2)cc1`, the figures for the inhibition in assay [1] and in assay [2] were 99.5% and 76.8%, respectively. Also, the IC50 in assay [3] was 0.309 nM.

On to `c1ccc(C[C@H]2CC(c3cccc4ccccc34)=NO2)cc1`, for which the inhibition in assay [1] was 41.5%; in assay [2] it was 5.5%. Also, the pIC50 in assay [3] is greater than 5.

In the case of `Fc1ccc(C[C@H]2CC(c3ccc(Cl)cc3)=NO2)cc1`, the inhibition was determined as 86.8% in assay [1] and 1.4% in assay [2]. In addition, the IC50 in assay [3] is 603 nM.

Turning to `CC(C)c1ccc(C[C@@H]2CC(c3ccc(Cl)cc3)=NO2)cc1`, the inhibition in assay [1] came out at 0.7%; in assay [2], 0.4%.

Regarding `COc1ccccc1C1=NO[C@@H](Cc2ccccc2)C1`, the inhibition in assay [1] was found to be 57.5%; in assay [2], 5.2%. In assay [3], the IC50 is 6920 nM.

In the case of `COc1ccc(C2=NO[C@@H](Cc3ccccc3OC)C2)cc1`, the inhibition came to 67.1% in assay [1] and 6.1% in assay [2]. Besides, the IC50 in assay [3] was 2190 nM.

Turning to `c1ccc(C[C@H]2CC(c3ccccc3)=NO2)cc1`, the results for the inhibition in assay [1] and in assay [2] were 94.9% and 6.5%, respectively. In assay [3], the IC50 is 174 nM.

In the case of `Oc1ccc(C2=NO[C@@H](Cc3ccccc3)C2)cc1`, the inhibition was found to be 42.8% in assay [1] and 5.3% in assay [2]. Moreover, the pIC50 in assay [3] is greater than 5.

For `CCc1ccc(C[C@@H]2CC(c3ccc(Cl)cc3)=NO2)cc1`, the inhibition in assay [1] stood at 29.4%; in assay [2], 6.3%. Also, the pIC50 in assay [3] is reported as greater than 5.

For the molecule `COc1ccc(C2=NO[C@H](Cc3ccccc3)O2)cc1`, the inhibition in assay [1] came to 99.5%; in assay [2], 56.1%. Moreover, the concentration for half-maximal inhibition (IC50) in assay [3] is 0.955 nM.

As to `Fc1cccc(C2=NO[C@H](Cc3ccccc3)C2)c1`, the inhibition in assay [1] worked out at 98.2%; in assay [2] it was 61.6%. For the same molecule, the IC50 in assay [3] was 0.955 nM.

With `Fc1cccc(C2=NO[C@@H](Cc3ccccc3)C2)c1`, the inhibition in assay [1] is 84.1%; in assay [2], -3.7%. The IC50 in assay [3] was 1000 nM.

For the molecule `Oc1ccc(/C=C/c2cc(O)cc(O)c2)cc1`, the inhibition in assay [1] worked out at 99.6%; in assay [2] it was 6.8%.

Take `COc1ccc(C2=NO[C@@H](CCc3ccccc3)C2)cc1`: the inhibition in assay [1] turned out to be 6.8%; in assay [2], 2.5%.
